How the values were obtained:
[1] = test system: WT splenic T cells from c-Myc-EGFP knock-in mice; assay: c-Myc mRNA after CD47 morpholino knockdown in T cells; format: cell-based, mouse
Description: RNA extraction and Real Time PCR: Total RNA was extracted using TRIzol® reagent (Invitrogen, Rockville, Md.) 24-36 hours after transfection or as indicated. Harvested mouse tissues were frozen in liquid nitrogen or placed into RNA Later™ RNA Stabilization Reagent (Ambion, Life Technologies, Grand Island, N.Y.). Whole organs (lungs, spleen, kidney, testis, skeletal muscle, brain, heart, and liver) were homogenized in TRIzol® reagent, and RNA was isolated, cDNA was prepared using First Maxima First Strand cDNA Synthesis kit for RT-qPCR (Fermentas Life Sciences, Glen Burnie, Md.). Real Time PCR was performed using the primers listed herein as SEQ ID NOs: 3-34, and SYBR Green PCR master reaction mix (AB applied Sciences, Life Technologies, Grand Island, N.Y.) on an MJ Research OPTICON I instrument (Bio-Rad) with the following amplification program: 95° C. for 15 minutes, followed by 40 cycles of 95° C. for 15 seconds, 58° C. for 20 seconds, 72° C. for 25 seconds, and 7° C. for 1 minute. Melting curves were performed for each product from 30° C. to 95° C. reading every 0.5° C. with a 6-second dwell time. The fold changes in mRNA expression were calculated by normalizing to hypoxanthine phosphoribosyltransferase (HPRT1) and TATA-box binding protein associated factor (TAF9) for mouse tissues and endothelial cells, or β-2 microglobulin (B2M) mRNA levels for spleen and isolated splenocytes. […]

CD47 = assay: In vivo morpholino knockdown of CD47 in WT mice; parameters: species or system mouse; conditions: for Oct4 mRNA level in spleen / Sox2 mRNA level in spleen / c-Myc mRNA level in spleen: at 48 hours, WT mice; for CD47 protein expression in vivo: intraperitoneal injection into WT mice
Description: RNA extraction and Real Time PCR: Total RNA was extracted using TRIzol® reagent (Invitrogen, Rockville, Md.) 24-36 hours after transfection or as indicated. Harvested mouse tissues were frozen in liquid nitrogen or placed into RNA Later™ RNA Stabilization Reagent (Ambion, Life Technologies, Grand Island, N.Y.). Whole organs (lungs, spleen, kidney, testis, skeletal muscle, brain, heart, and liver) were homogenized in TRIzol® reagent, and RNA was isolated, cDNA was prepared using First Maxima First Strand cDNA Synthesis kit for RT-qPCR (Fermentas Life Sciences, Glen Burnie, Md.). Real Time PCR was performed using the primers listed herein as SEQ ID NOs: 3-34, and SYBR Green PCR master reaction mix (AB applied Sciences, Life Technologies, Grand Island, N.Y.) on an MJ Research OPTICON I instrument (Bio-Rad) with the following amplification program: 95° C. for 15 minutes, followed by 40 cycles of 95° C. for 15 seconds, 58° C. for 20 seconds, 72° C. for 25 seconds, and 7° C. for 1 minute. Melting curves were performed for each product from 30° C. to 95° C. reading every 0.5° C. with a 6-second dwell time. The fold changes in mRNA expression were calculated by normalizing to hypoxanthine phosphoribosyltransferase (HPRT1) and TATA-box binding protein associated factor (TAF9) for mouse tissues and endothelial cells, or β-2 microglobulin (B2M) mRNA levels for spleen and isolated splenocytes. B2M was used for normalization of mRNA levels in human cells. Note that the total RNA yield per cell was higher for all CD47-null and CD47-deficient cells and tissues as compared to WT.
CD47 knockdown in T cells and in WT mice: A translation-blocking antisense morpholino oligonucleotide complementary to human and murine CD47 ([…]; SEQ ID NO: 35) and a 5-base mismatch control morpholino (CGTgACAGcCAcGACCgACTGCgCA; SEQ ID NO: 36) were obtained from GeneTools, LLC (Philomath, Oreg.) as previously described (Isenberg et al., Circ Res 100, 712-720, 2007). Primary T cells isolated from c-Myc EGFP knock-in mouse were transfected using morpholinos (2.5 μM) along with Endo-porter (GeneTools, LLC) delivery reagent according to manufacturer's instructions. Mice were treated by injection of 750 μl of 10 μM morpholino in saline as described (Maxhimer et al., Sci. Transl. Med. 1, 3ra7, 2009). Organs were harvested for mRNA isolation after 48 hours.

HUVEC [2] = assay: Sustained proliferation / self-renewal of HUVEC in continuous culture; format: cell-based, human
Excerpt: Human umbilical vein endothelial cells (HUVEC), which express CD47, normally become senescent with repeated passage in tissue culture (FIG. 16A).
(§1) Therefore, antisense suppression of CD47 is sufficient to induce reprogramming of primary endothelial cells of a mesodermal lineage into an ectodermal lineage.

HUVEC [3] = assay: MTS proliferation assay of treated HUVEC; format: cell-based, human
Description: Cell proliferation assays: Equal numbers of mouse lung endothelial cells from WT and CD47 (Passage 1) were plated in 96 well plates using RPMI+1% FBS. After 72 hours, net cell proliferation was assessed by the increase in formazan absorbance versus controls assessed at time 0 using Cell Titer 96R aqueous MTS kit (Promega, Madison, Wis.). DNA synthesis was measured using a BrdU Assay (EMD Biosciences, Billerica, Mass.).
Proliferative capacities of the treated HUVEC (CD47 morpholino, 7N3 peptide, or 604 control peptide) were assessed using MTS assays.

HUVEC [4] = assay: Direct neural differentiation of HUVEC; format: cell-based, human
Description: as §1
(§2) A new vial of HUVEC at passage 1 was thawed and split in to two 25 cm^3 Nunc tissue culture flasks. One flask (P1) was treated with CD47-MO (2.5 μM). The other was kept as untreated. The HUVEC were transferred in to new Nunc tissue culture flask 75 cm^3 and cultured for 2 weeks using EGM2 medium. After 2 weeks, the HUVEC (untreated and CD47-MO treated) were assessed for generation of EBs, neural differentiation, and cardiomyocytes differentiation. […] Direct Neural Differentiation media: Equal numbers of HUVEC cells (untreated and cd47-mo) were cultured with neural basal media (same for mouse lung endothelial cells) for 6 days. […] After 6 days, the neural basal media was replaced with neural differentiation media (same used for mouse lung endothelial cells). None of the untreated HUVEC survived.

HUVEC [5] = assay: EB formation of HUVEC in serum free medium; format: cell-based, human; conditions: after 3-6 days
Description: as §2

HUVEC [6] = assay: Direct cardiomyocyte differentiation of HUVEC; format: cell-based, human
Description: Finally, equal numbers of HUVEC (untreated and cd47-mo treated at passage 1) were plated in 6-well plates with EGM2 media for 24 hours. The next day, EGM2 medium was replaced with cardiomyocyte differentiation media (Millipore). […] CD47-MO cells survived up to 10 days. Thus, antisense suppression of CD47 is sufficient to induce reprogramming of primary endothelial cells into cardiomyocyte lineage.

CGTCACAGGCAGGACCCACTGCCCA (all phosphorodiamidate morpholino (PMO)) [CD47 morpholino]
increase in c-Myc mRNA level ([1]; at 24 h, morpholino 2.5 μM): 7 fold
c-Myc mRNA expression (FIG. 6A) ([1]; in words, legend says WT lung endothelial cells): increases
Oct4 mRNA level in spleen (CD47): induction
Sox2 mRNA level in spleen (CD47): induction
c-Myc mRNA level in spleen (CD47): induction
Oct4 mRNA level in spleen (CD47; listed as CD47-MO): elevates
Sox2 mRNA level in spleen (CD47; listed as CD47-MO): elevates
c-Myc mRNA level in spleen (CD47; listed as CD47-MO): elevates
CD47 protein expression in vivo (CD47): significantly decreased
CD47 protein expression in vivo (CD47; listed as CD47-morpholino): knockdown
self-renewal (HUVEC [2]; antisense CD47 morpholino at 2.5 μM, one treatment): enabled self-renewal
proliferative response after second treatment (HUVEC [2]; second treatment, same concentration (2.5 μM)): enhanced proliferative response
proliferation (MTS) (HUVEC [3]; 3 weeks post-treatment, relative to control HUVEC): significantly increased proliferation
proliferation (MTS) (HUVEC [3]; 6 days post-treatment): slight but not significant enhancement of proliferation
survival in neural basal media (HUVEC [4]; 6 days, CD47-MO 2.5 μM): survived better than untreated
phenotype in neural differentiation media (HUVEC [4]; after 6 days neural basal media): exhibited neural phenotype
appearance of cells with neuronal phenotypes (HUVEC [4]; direct transfer into neural differentiation medium): sporadic appearance of cells with neuronal phenotypes
survival in neural differentiation media (HUVEC [4]; numbers were low): up to 15 days
cell aggregation in serum free medium (HUVEC [5]): formed different phenotype cell aggregation
survival in cardiomyocyte differentiation media (HUVEC [6]): up to 10 days
survival and differentiation in cardiomyocyte differentiation media (HUVEC [6]; untreated HUVEC unable to survive after 3 days): survived and underwent differentiation

Source: US11692175B2, “Methods for generation of pluripotent and multipotent cells” (The USA, as represented by the Secretary, Dept. of Health …, priority 2012, dated 2023)
